Reference: patent US12110295B2, “WD40 repeat domain protein 5 (WDR5) degradation/disruption compounds and methods of use” (Icahn School of Medicine at Mount Sinai, priority 2018, dated 2024)

Target: WDR5 (Homo sapiens, UniProt P61964)
Assay: Screening of putative WDR5 degraders by Western blot in MV4;11 and/or MIAPACA2 cells
Type: cell-based
Set-up: After WDR5 degrader treatment, cells were collected and lysed; endogenous in cells; host or cells: MV4;11 and/or MIAPACA2
Settings: summary of screening, FIGS. 6-10
In short: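 MV4;11 (1×10^6/well) or MIAPACA2 (1×10^5/well) cells treated 18 h with compound at paired doses between 0.1 and 10 μM, DMSO as control. Total lysates immunoblotted for WDR5 with vinculin, tubulin or GAPDH loading controls; fluorescent secondary detection.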

Structure (SMILES) | effective degradation of WDR5 in MV4;11 and/or MIAPACA2 cells
Cc1ncsc1-c1ccc(CNC(=O)[C@@H]2C[C@@H](O)CN2C(=O)[C@@H](NC(=O)CCOCCOCCOCCOCCC(=O)N2CCN(Cc3cnc(N4CC=C(c5cc(NC(=O)c6c[nH]c(=O)cc6C(F)(F)F)c(N6C[C@@H](C)N(C)[C@@H](C)C6)cc5F)CC4)nc3)CC2)C(C)(C)C)cc1 [XF078-138, N-(4-fluoro-5-(1-(5-((4-((S)-18-((2S,4R)-4-hydroxy-2-((4-(4-methylthiazol-5-yl)benzyl)carbamoyl)pyrrolidine-1-carbonyl)-19,19-dimethyl-16-oxo-4,7,10,13-tetraoxa-17-azaicosanoyl)piperazin-1-yl)methyl)pyrimidin-2-yl)-1,2,3,6-tetrahydropyridin-4-yl)-2-((3S,5R)-3,4,5-trimethylpiperazin-1-yl)phenyl)-6-oxo-4-(trifluoromethyl)-1,6-dihydropyridine-3-carboxamide] | able to effectively degrade WDR5
Cc1ncsc1-c1ccc(CNC(=O)[C@@H]2C[C@@H](O)CN2C(=O)[C@@H](NC(=O)CCOCCOCCOCCOCCNC(=O)CCC(=O)N2CCN(c3ccc(-c4cc(NC(=O)c5c[nH]c(=O)cc5C(F)(F)F)c(N5C[C@@H](C)N(C)[C@@H](C)C5)cc4F)cn3)CC2)C(C)(C)C)cc1 [XF067-146, N-(4-fluoro-5-(6-(4-((S)-3-((2S,4R)-4-hydroxy-2-((4-(4-methylthiazol-5-yl)benzyl)carbamoyl)pyrrolidine-1-carbonyl)-2,2-dimethyl-5,21-dioxo-8,11,14,17-tetraoxa-4,20-diazatetracosan-24-oyl)piperazin-1-yl)pyridin-3-yl)-2-((3S,5R)-3,4,5-trimethylpiperazin-1-yl)phenyl)-6-oxo-4-(trifluoromethyl)-1,6-dihydropyridine-3-carboxamide] | able to effectively degrade WDR5
Cc1ncsc1-c1ccc(CNC(=O)[C@@H]2C[C@@H](O)CN2C(=O)[C@@H](NC(=O)CCCCCCCC(=O)N2CCN(Cc3cnc(N4CC=C(c5cc(NC(=O)c6c[nH]c(=O)cc6C(F)(F)F)c(N6C[C@@H](C)N(C)[C@@H](C)C6)cc5F)CC4)nc3)CC2)C(C)(C)C)cc1 [XF078-146, N-(4-fluoro-5-(1-(5-((4-(9-(((S)-1-((2S,4R)-4-hydroxy-2-((4-(4-methylthiazol-5-yl)benzyl)carbamoyl)pyrrolidin-1-yl)-3,3-dimethyl-1-oxobutan-2-yl)amino)-9-oxononanoyl)piperazin-1-yl)methyl)pyrimidin-2-yl)-1,2,3,6-tetrahydropyridin-4-yl)-2-((3S,5R)-3,4,5-trimethylpiperazin-1-yl)phenyl)-6-oxo-4-(trifluoromethyl)-1,6-dihydropyridine-3-carboxamide] | able to effectively degrade WDR5
Cc1ncsc1-c1ccc(CNC(=O)[C@@H]2C[C@@H](O)CN2C(=O)[C@@H](NC(=O)CCOCCC(=O)N2CCN(Cc3cnc(N4CC=C(c5cc(NC(=O)c6c[nH]c(=O)cc6C(F)(F)F)c(N6C[C@@H](C)N(C)[C@@H](C)C6)cc5F)CC4)nc3)CC2)C(C)(C)C)cc1 [XF078-133, N-(4-fluoro-5-(1-(5-((4-(3-(3-(((S)-1-((2S,4R)-4-hydroxy-2-((4-(4-methylthiazol-5-yl)benzyl)carbamoyl)pyrrolidin-1-yl)-3,3-dimethyl-1-oxobutan-2-yl)amino)-3-oxopropoxy)propanoyl)piperazin-1-yl)methyl)pyrimidin-2-yl)-1,2,3,6-tetrahydropyridin-4-yl)-2-((3S,5R)-3,4,5-trimethylpiperazin-1-yl)phenyl)-6-oxo-4-(trifluoromethyl)-1,6-dihydropyridine-3-carboxamide] | able to effectively degrade WDR5
Cc1ncsc1-c1ccc(CNC(=O)[C@@H]2C[C@@H](O)CN2C(=O)[C@@H](NC(=O)CCCCC(=O)N2CCN(Cc3cnc(N4CC=C(c5cc(NC(=O)c6c[nH]c(=O)cc6C(F)(F)F)c(N6C[C@@H](C)N(C)[C@@H](C)C6)cc5F)CC4)nc3)CC2)C(C)(C)C)cc1 [XF078-143, N-(4-fluoro-5-(1-(5-((4-(6-(((S)-1-((2S,4R)-4-hydroxy-2-((4-(4-methylthiazol-5-yl)benzyl)carbamoyl)pyrrolidin-1-yl)-3,3-dimethyl-1-oxobutan-2-yl)amino)-6-oxohexanoyl)piperazin-1-yl)methyl)pyrimidin-2-yl)-1,2,3,6-tetrahydropyridin-4-yl)-2-((3S,5R)-3,4,5-trimethylpiperazin-1-yl)phenyl)-6-oxo-4-(trifluoromethyl)-1,6-dihydropyridine-3-carboxamide] | able to effectively degrade WDR5
Cc1ncsc1-c1ccc(CNC(=O)[C@@H]2C[C@@H](O)CN2C(=O)[C@@H](NC(=O)CCC(=O)N2CCN(Cc3cnc(N4CC=C(c5cc(NC(=O)c6c[nH]c(=O)cc6C(F)(F)F)c(N6C[C@@H](C)N(C)[C@@H](C)C6)cc5F)CC4)nc3)CC2)C(C)(C)C)cc1 [XF078-141, N-(4-fluoro-5-(1-(5-((4-(4-(((S)-1-((2S,4R)-4-hydroxy-2-((4-(4-methylthiazol-5-yl)benzyl)carbamoyl)pyrrolidin-1-yl)-3,3-dimethyl-1-oxobutan-2-yl)amino)-4-oxobutanoyl)piperazin-1-yl)methyl)pyrimidin-2-yl)-1,2,3,6-tetrahydropyridin-4-yl)-2-((3S,5R)-3,4,5-trimethylpiperazin-1-yl)phenyl)-6-oxo-4-(trifluoromethyl)-1,6-dihydropyridine-3-carboxamide] | able to effectively degrade WDR5
Cc1ncsc1-c1ccc(CNC(=O)[C@@H]2C[C@@H](O)CN2C(=O)[C@@H](NC(=O)CCCCCCCC(=O)NCCN2CCN(Cc3ccc(F)c(-c4ccc(N5C[C@@H](C)N(C)[C@@H](C)C5)c(NC(=O)c5c[nH]c(=O)cc5C(F)(F)F)c4)c3)CC2)C(C)(C)C)cc1 [XF078-15, N^1-(2-(4-((6-fluoro-3′-(6-oxo-4-(trifluoromethyl)-1,6-dihydropyridine-3-carboxamido)-4′-((3S,5R)-3,4,5-trimethylpiperazin-1-yl)-[1,1′-biphenyl]-3-yl)methyl)piperazin-1-yl)ethyl)-N^9-((S)-1-((2S,4R)-4-hydroxy-2-((4-(4-methylthiazol-5-yl)benzyl)carbamoyl)pyrrolidin-1-yl)-3,3-dimethyl-1-oxobutan-2-yl)nonanediamide] | able to effectively degrade WDR5
Cc1ncsc1-c1ccc(CNC(=O)[C@@H]2C[C@@H](O)CN2C(=O)[C@@H](NC(=O)CCCCCCCCC(=O)N2CCN(Cc3cnc(N4CC=C(c5cc(NC(=O)c6c[nH]c(=O)cc6C(F)(F)F)c(N6C[C@@H](C)N(C)[C@@H](C)C6)cc5F)CC4)nc3)CC2)C(C)(C)C)cc1 [XF078-147, N-(4-fluoro-5-(1-(5-((4-(10-(((S)-1-((2S,4R)-4-hydroxy-2-((4-(4-methylthiazol-5-yl)benzyl)carbamoyl)pyrrolidin-1-yl)-3,3-dimethyl-1-oxobutan-2-yl)amino)-10-oxodecanoyl)piperazin-1-yl)methyl)pyrimidin-2-yl)-1,2,3,6-tetrahydropyridin-4-yl)-2-((3S,5R)-3,4,5-trimethylpiperazin-1-yl)phenyl)-6-oxo-4-(trifluoromethyl)-1,6-dihydropyridine-3-carboxamide] | able to effectively degrade WDR5
Cc1ncsc1-c1ccc(CNC(=O)[C@@H]2C[C@@H](O)CN2C(=O)[C@@H](NC(=O)CCCCCCC(=O)NCCN2CCN(Cc3ccc(F)c(-c4ccc(N5C[C@@H](C)N(C)[C@@H](C)C5)c(NC(=O)c5c[nH]c(=O)cc5C(F)(F)F)c4)c3)CC2)C(C)(C)C)cc1 [XF078-14, N^1-(2-(4-((6-fluoro-3′-(6-oxo-4-(trifluoromethyl)-1,6-dihydropyridine-3-carboxamido)-4′-((3S,5R)-3,4,5-trimethylpiperazin-1-yl)-[1,1′-biphenyl]-3-yl)methyl)piperazin-1-yl)ethyl)-N^8-((S)-1-((2S,4R)-4-hydroxy-2-((4-(4-methylthiazol-5-yl)benzyl)carbamoyl)pyrrolidin-1-yl)-3,3-dimethyl-1-oxobutan-2-yl)octanediamide] | able to effectively degrade WDR5
Cc1ncsc1-c1ccc(CNC(=O)[C@@H]2C[C@@H](O)CN2C(=O)[C@@H](NC(=O)COCCOCCOCC(=O)N2CCN(c3ncc(-c4cc(NC(=O)c5ccc(F)cc5C(F)(F)F)c(N5C[C@@H](C)N(C)[C@@H](C)C5)cc4F)cn3)CC2)C(C)(C)C)cc1 [XF078-103, (2S,4R)-1-((S)-2-(tert-butyl)-14-(4-(5-(2-fluoro-5-(4-fluoro-2-(trifluoromethyl)benzamido)-4-((3S,5R)-3,4,5-trimethylpiperazin-1-yl)phenyl)pyrimidin-2-yl)piperazin-1-yl)-4,14-dioxo-6,9,12-trioxa-3-azatetradecanoyl)-4-hydroxy-N-(4-(4-methylthiazol-5-yl)benzyl)pyrrolidine-2-carboxamide] | able to effectively degrade WDR5
C[C@@H]1CN(c2ccc(-c3cc(CN4CCN(CCNC(=O)CCCNc5cccc6c5C(=O)N(C5CCC(=O)NC5=O)C6=O)CC4)ccc3F)cc2NC(=O)c2c[nH]c(=O)cc2C(F)(F)F)C[C@H](C)N1C (stereo partly drawn) [XF078-20, N-(5′-((4-(2-(4-((2-(2,6-dioxopiperidin-3-yl)-1,3-dioxoisoindolin-4-yl)amino)butanamido)ethyl)piperazin-1-yl)methyl)-2′-fluoro-4-((3S,5R)-3,4,5-trimethylpiperazin-1-yl)-[1,1′-biphenyl]-3-yl)-6-oxo-4-(trifluoromethyl)-1,6-dihydropyridine-3-carboxamide] | able to effectively degrade WDR5
